Legend:
TTR [1] = assay: TTR editing in HepG2 cells transfected with Spy Cas9 mRNA and dgRNAs (Table 6); type: cell-based, human; details: HepG2 cells co-transfected with Spy Cas9 mRNA (SEQ ID NO:2) and dgRNAs
Protocol: HepG2 cell line. The human hepatocellular carcinoma cell line HepG2 (American Type Culture Collection, Cat. HB-8065) was cultured in DMEM media supplemented with 10% fetal bovine serum. Cells were counted and plated on Bio-coat collagen I coated 96-well plates (ThermoFisher, Cat. 877272) at a density of 10,000 cells/well in a 96-well plate 24 hours prior to transfection. Cells were transfected with Lipofectamine 2000 (ThermoFisher, Cat. 11668019) per the manufacturer's protocol. Cells were sequentially transfected with lipoplex containing Spy Cas9 mRNA (100 ng), Lipofectamine 2000 (0.2 μL/well) and OptiMem followed by a separate lipoplex containing individual crRNA (25 nM), tracer RNA (25 nM), Lipofectamine 2000 (0.2 μL/well) and OptiMem.
(§1) Transfected cells were harvested post-transfection at 24, 48, or 72 hours. The genomic DNA was extracted from each well of a 96-well plate using 50 μL/well BuccalAmp DNA Extraction solution (Epicentre, Cat. QE09050) per manufacturer's protocol. All DNA samples were subjected to PCR and subsequent NGS analyses, as described herein.
(§2) To quantitatively determine the efficiency of editing at the target location in the genome, sequencing was utilized to identify the presence of insertions and deletions introduced by gene editing.
(§3) Primers were designed around the target site within the gene of interest (e.g. TTR), and the genomic area of interest was amplified.
(§4) Additional PCR was performed per the manufacturer's protocols (Illumina) to add chemistry for sequencing. The amplicons were sequenced on an Illumina MiSeq instrument. The reads were aligned to a reference genome (e.g., the human reference genome (hg38), the cynomologus reference genome (mf5), the rat reference genome (rn6), or the mouse reference genome (mm10)) after eliminating those having low quality scores. The resulting files containing the reads were mapped to the reference genome (BAM files), where reads that overlapped the target region of interest were selected and the number of wild type reads versus the number of reads which contain an insertion, substitution, or deletion was calculated.
(§5) The editing percentage (e.g., the “editing efficiency” or “percent editing” or “indel frequency”) is defined as the total number of sequence reads with insertions/deletions (“indels”) or substitutions over the total number of sequence reads, including wild type.
(§6) Guides in dgRNA format targeting human TTR and the cynomologus matched sequences were delivered to HEK293 Cas9, HUH7 and HepG2 cell lines, as well as primary human hepatocytes and primary cynomolgus monkey hepatocytes as described in Example 1. Percent editing was determined for crRNAs comprising each guide sequence across each cell type and the guide sequences were then rank ordered based on highest % edit. The screening data for the guide sequences in Table 1 in all five cell lines are listed below (Table 4 through 11).

TTR [2] = assay: TTR editing in primary cyno hepatocytes electroporated with Spy Cas9 protein and dgRNAs (Tables 10, 11); type: cell-based, cynomolgus monkey
Protocol: (§7) Primary liver hepatocytes. Primary human liver hepatocytes (PHH) and primary cynomolgus liver hepatocytes (PCH) (Gibco) were cultured per the manufacturer's protocol (Invitrogen, protocol 11.28.2012). In brief, the cells were thawed and resuspended in hepatocyte thawing medium with supplements (Gibco, Cat. CM7000) followed by centrifugation at 100 g for 10 minutes for human and 80 g for 4 minutes for cyno. The supernatant was discarded and the pelleted cells resuspended in hepatocyte plating medium plus supplement pack (Invitrogen, Cat. A1217601 and CM3000). Cells were counted and plated on Bio-coat collagen I coated 96-well plates (ThermoFisher, Cat. 877272) at a density of 33,000 cells/well for human or 60,000 cells/well for cyno (or 65,000 cells/well when assaying effects on TTR protein, described further below). Plated cells were allowed to settle and adhere for 6 or 24 hours in a tissue culture incubator at 37° C. and 5% CO2 atmosphere. After incubation cells were checked for monolayer formation and media was replaced with hepatocyte culture medium with serum-free supplement pack (Invitrogen, Cat. A1217601 and CM4000).
(§8) […] formation was performed prior to electroporation or transfection of Spy Cas9 protein loaded with guide RNAs (RNPs) onto cells. For dual guide (dgRNAs), individual crRNA and trRNA was pre-annealed by mixing equivalent amounts of reagent and incubating at 95° C. for 2 min and cooling to room temperature. Single guide (sgRNAs) were boiled at 95° C. for 2 min and cooling to room temperature. The boiled dgRNA or sgRNA was incubated with Spy Cas9 protein in Optimem for 10 minutes at room temperature to form a ribonucleoprotein (RNP) complex.
(§9) For RNP electroporation into primary human and cyno hepatocytes, the cells are thawed and resuspended in Lonza electroporation Primary Cell P3 buffer at a concentration of 2500 cells per μL for human hepatocytes and 3500 cells per μL for cyno hepatocytes. A volume of 20 μL of resuspended cells and 5 μL of RNP are mixed together per guide. 20 μL of the mixture is placed into a Lonza electroporation plate. The cells were electroporated using the Lonza nucleofector with the preset protocol EX-147. Post electroporation, the cells are transferred into a Biocoat plate containing pre-warmed maintenance media and placed in a tissue culture incubator at 37° C. and 5% CO2.
as §1, §2, §3, §4
(§10) The editing percentage (e.g., the “editing efficiency” or “percent editing” or “indel frequency”) is defined as the total number of sequence reads with insertions/deletions (“indels”) or substitutions over the total number of sequence reads, including wild type. […]

TTR [3] = assay: TTR editing in primary human hepatocytes transfected with Spy Cas9 mRNA and dgRNAs (Table 9); type: cell-based; details: dgRNA co-transfected with Spy Cas9 mRNA (SEQ ID NO:2)
Protocol: as §7
Lipofectamine RNAiMax (ThermoFisher, Cat. 13778150) based transfections were conducted as per the manufacturer's protocol. Cells were sequentially transfected with a lipoplex containing Spy Cas9 mRNA (100 ng), Lipofectamine RNAiMax (0.4 μL/well) and OptiMem followed by a separate lipoplex containing crRNA (25 nM) and tracer RNA (25 nM) or sgRNA (25 nM), Lipofectamine RNAiMax (0.4 μL/well) and OptiMem.
as §1, §2, §3, §4, §5, §6

TTR [4] = assay: TTR editing in primary human hepatocytes electroporated with Spy Cas9 protein loaded with dgRNAs (Table 7); type: cell-based; details: dgRNA electroporated with Spy Cas9 protein (RNP)
Protocol: as §7, §8, §9, §1, §2, §3, §4, §10

TTR [5] = assay: TTR editing in primary human hepatocytes transfected with Spy Cas9 protein (RNP) loaded with dgRNAs (Table 8); type: cell-based; details: dgRNA transfected with Spy Cas9 protein (RNP)
Protocol: as §7, §8
For RNP lipoplex transfections, cells were transfected with Lipofectamine RNAiMAX (ThermoFisher, Cat. 13778150) per the manufacturer's protocol. Cells were transfected with an RNP containing Spy Cas9 (10 nM), individual guide (10 nM), tracer RNA (10 nM), Lipofectamine RNAiMAX (1.0 μL/well) and OptiMem. RNP formation was performed as described above.
as §1, §2, §3, §4, §5
Guides in dgRNA format targeting human TTR and the cynomologus matched sequences were delivered to HEK293 Cas9, HUH7 and HepG2 cell lines, as well as primary human hepatocytes and primary cynomolgus monkey hepatocytes as described in Example 1. […]

off-target genomic sites = assay: Off-target oligo insertion based assay in HEK293_Cas9 cells, dgRNAs and sgRNAs (Tables 23, 24); type: cell-based, human; details: Table 23; TTR dgRNAs in HekCas9 cells, oligo insertion based assay
Protocol: An oligo insertion based assay (See, e.g., Tsai et al., Nature Biotechnology 33, 187-197; 2015) was used to determine potential off-target genomic sites cleaved by Cas9 targeting TTR. Forty-five dgRNAs from Table 1 (and two control guides with known off-target profiles) were screened in the HEK293 Cas9 cells. The human embryonic kidney adenocarcinoma cell line HEK293 constitutively expressing Spy Cas9 (“HEK293_Cas9”) was cultured in DMEM media supplemented with 10% fetal bovine serum and 500 μg/ml G418. Cells were plated at a density of 30,000 cells/well in a 96-well plate 24 hours prior to transfection. Cells were transfected with Lipofectamine RNAiMAX (ThermoFisher, Cat. 13778150) per the manufacturer's protocol. Cells were transfected with a lipoplex containing individual crRNA (15 nM), trRNA (15 nM), and donor oligo with (10 nM) Lipofectamine RNAiMAX (0.3 μL/well) and OptiMem. Cells were lysed 24 hours post transfection and genomic DNA was extracting using Zymo's Quick gDNA 96 Extraction kit (catalog #D3012) following the manufacturer's recommended protocol. The gDNA was quantified using the Qubit High Sensitivity dsDNA kit (Life Technologies). Libraries were prepared per the previously described method in Tsai et al, 2015 with minor modifications. Sequencing was performed on Illumina's MiSeq and HiSeq 2500. The assay identified potential off-target sites for some of the crRNAs which are plotted in FIG. 2.
Additionally, a subset of the guides was assessed for off-target potential as modified sgRNAs in the Hek_Cas9 cells via the oligo based insertion method described above. The off-target results were plotted in FIG. 4.

[6] = Table 10, primary cyno hepatocytes electroporated with Spy Cas9 protein (RNP) and dgRNAs
[7] = primary cyno hepatocytes electroporated with Spy Cas9 protein (RNP) and cyno specific dgRNAs

Row | Sequence | Avg % Deletion (TTR [1]) [%] | Avg % Edit (TTR [1]) [%] | Avg % Insert (TTR [1]) [%] | Avg % Deletion (TTR [2]; [6]) [%] | Avg % Edit (TTR [2]; [6]) [%] | Avg % Insert (TTR [2]; [6]) [%] | Avg % Deletion (TTR [3]) [%] | Avg % Edit (TTR [3]) [%] | Avg % Insert (TTR [3]) [%] | Avg % Deletion (TTR [4]) [%] | Avg % Edit (TTR [4]) [%] | Avg % Insert (TTR [4]) [%] | Avg % Deletion (TTR [5]) [%] | Avg % Edit (TTR [5]) [%] | Avg % Insert (TTR [5]) [%] | # Sites (off-target integration sites detected) (off-target genomic sites) | Avg % Deletion (TTR [2]; [7]) [%] | Avg % Edit (TTR [2]; [7]) [%] | Avg % Insert (TTR [2]; [7]) [%]
1 | AGCCGUGGUGGAAUAGGAGU (tested as dual guide RNA, chemistry not given here) [CR005299] | 2.30 | 38.61 | 36.32 | 0.26 | 13.48 | 13.23 | 0.60 | 9.43 | 8.93 | 0.35 | 8.65 | 8.30 | 0.58 | 19.37 | 18.79 | – | – | – | –
2 | GGCCGUGCAUGUGUUCAGAA (tested as dual guide RNA, chemistry not given here) [CR005304] | 54.75 | 62.82 | 8.07 | – | – | – | 44.47 | 45.27 | 0.83 | 61.63 | 67.00 | 5.53 | 45.13 | 49.45 | 4.32 | 0 | – | – | –
3 | AAGUGACUUCCAGUAAGAUU (tested as dual guide RNA, chemistry not given here) [CR005371] | – | – | – | – | – | – | – | – | – | – | – | – | – | – | – | – | 8.10 | 8.42 | 0.31
4 | CCAGUCCAGCGAGGCAGAGG (tested as dual guide RNA, chemistry not given here) [CR005367] | – | – | – | – | – | – | – | – | – | – | – | – | – | – | – | – | 50.26 | 50.79 | 0.53
5 | AAAGGCUGCUGAUGAGACCU (tested as dual guide RNA, chemistry not given here) [CR005364] | – | – | – | – | – | – | – | – | – | – | – | – | – | – | – | – | 27.11 | 27.70 | 0.58
6 | ACACAAAUACCAGUCCAGCG (tested as dual guide RNA, chemistry not given here) [CR000689] | – | – | – | – | – | – | – | – | – | – | – | – | – | – | – | – | 6.30 | 24.41 | 18.11
7 | UGUCUGUCUUCUCUCAUAGG (tested as dual guide RNA, chemistry not given here) [CR005307] | 14.33 | 22.03 | 7.70 | 2.55 | 4.56 | 2.01 | 9.30 | 12.90 | 3.67 | 3.00 | 8.17 | 5.20 | 8.55 | 18.73 | 10.18 | – | – | – | –
8 | AAAGUUCUAGAUGCCGUCCG (tested as dual guide RNA, chemistry not given here) [CR005369] | – | – | – | – | – | – | – | – | – | – | – | – | – | – | – | – | 33.92 | 42.01 | 8.09
9 | AAAAGGCUGCUGAUGAGACC (tested as dual guide RNA, chemistry not given here) [CR005372] | – | – | – | – | – | – | – | – | – | – | – | – | – | – | – | – | 17.16 | 17.98 | 0.83
10 | UAUAGGAAAACCAGUGAGUC (tested as dual guide RNA, chemistry not given here) [CR005305] | 1.21 | 13.51 | 12.30 | 0.15 | 11.28 | 11.13 | 1.60 | 7.53 | 5.93 | 0.40 | 3.83 | 3.53 | 0.34 | 7.07 | 6.73 | – | – | – | –
11 | ACUUGUCUUCUCUAUACCCA (tested as dual guide RNA, chemistry not given here) [CR005370] | – | – | – | – | – | – | – | – | – | – | – | – | – | – | – | – | 62.93 | 63.52 | 0.59
